Test results reported in patent publication US4252806A, “Triazoloquinolones” (Mead Johnson & Company, priority 1979, dated 1981).

Assays:
[1] = Inhibition of pernicious preening in mice (antipsychotic or analgetic); type: in vivo; conditions: Mus musculus, oral, read-out: ED50, inhibition of pernicious preening (anti psychotic or analgetic)
From the text: Inhibition of pernicious
psychotic or analgetic)^6
^6 Wilfon, et al., Federation Proceedings 19, 21 (1960).

[2] = Lethal toxicity (ALD50) and first signs of pharmacologic activity (ATD50) in mice; conditions: mouse, in vivo, oral, groups of 10, given as part of ALD50/ATD50 ratio; for TD50: read-out: ATD50 (dose at which signs of pharmacologic activity are first evidenced)
Protocol: In groups of 10 mice treated variously with geometrically increasing doses of test compound of from 125 mg./kg. to 2,000 mg./kg., the lethal toxicity (ALD50) and the dose at which signs of pharmacologic activity are first evidenced (ATD50) can be estimated. […] The ALD50 /ATD50 ratio (mg. per kg. body wt./mg. per kg. body wt.) for the compound of Procedure 4 is 2,000/125-250 and for that of Procedure 6 is >2,000/8-15.7. The ratio for trazodone is 940/2-4. Thus, the present substances have less than one-half the lethal toxicity of trazodone and from less than one-half to one-fiftieth the propensity for producing overt signs of physiological effect (ATD50) on oral administration to mice. More particularly, the present substances exert less of a depressant effect on the central nervous system as reflected by less deficit in motor coordination, less interference with normal motor activity, and less analgetic effect than trazodone. Laboratory test data with respect to these properties are arranged below.

[3] = Suppression of conditioned avoidance response; type: in vivo; conditions: oral; for suppression of conditioned avoidance response, activity in words: at 100 mg/kg
From the text: |Suppression of conditioned |avoidance response | ^7 Albert, et al., Pharmacologist 4, 152 (1962).

[4] = Reduction of spontaneous motor activity in mice; type: in vivo; conditions: oral
[5] = CNS depression in mice: antagonism of foot shock induced aggression; type: in vivo; conditions: Mus musculus, oral
From the text: Antagonism of foot shock
^5 Tedeschi, et al., J. Pharmacol. & Exptl. Ther. 125, 28 (1959).

[6] = Mouse, tail clip (analgetic); type: in vivo; conditions: oral
From the text: ^1 Bianchi, et al., Brit. J. of Pharmacology 9, 280 (1954).

[7] = Prevention of reserpine ptosis in mice (oral pretreatment); type: in vivo; conditions: Mus musculus, test drug oral (per os) before reserpine 2.0 mg./kg. intravenously
[8] = Rotorod method for motor incordination in mice; type: in vivo; conditions: oral
From the text: Rotorod method for motor
^4 Kinnaird, et al., J. Pharmacol. & Exptl.
Cutting, et al., Archives Int. Pharmacodyn.

[9] = Reduction of phenylquinone writhing in mice (analgetic); type: in vivo; conditions: Mus musculus, oral
From the text: Reduction of phenylquinone
^2 Hendershot, et al., J. Pharmcol. & Exptl. Ther. 125, 237 (1959).

[10] = various animal tests, U.S. Pat. No. 3,381,009; cited from earlier work
[11] = clinical use, vs imipramine; cited from earlier work

Structure (SMILES) | ED50 [1] | LD50 [2] | TD50 [2] | suppression of conditioned avoidance response, activity in words [3] | AED-0.3, reduction of spontaneous motor activity [4] | ED50 [5] | ED50 [6] | ED50 [7] | Rotorod method for motor incordination, activity in words ([8]; at 800 (mg./kg.)) | ED50 [9] | reduction of spontaneous motor activity, activity in words ([4]; at 20, 40, & 80 (mg./kg.)) | tail clip (analgetic), activity in words ([6]; at 200 (mg./kg.)) | ED50 [3] | pharmacological actions [10] | clinical antidepressant effectiveness and side effects [11] | TD50 ([8]; mouse, in vivo, read-out: ED50, Rotorod method for motor incordination)
O=c1n(CCCN2CCN(c3cccc(Cl)c3)CC2)nc2ccc3ccccc3n12 [Procedure 4, 2-[3-[4-(3-Chlorophenyl)-1-piperazinyl]propyl]-1,2,4-triazolo[4,3-a]quinolin-3(2H)-one] | 24 mg/kg | 2000 mg/kg | 125 to 250 mg/kg | inactive | 80 mg/kg | 54 mg/kg | 200 mg/kg | 29 mg/kg | inactive | 40.5 mg/kg |  |  |  |  |  | 
Cc1cc2nn(CCCN3CCN(c4cccc(Cl)c4)CC3)c(=O)n2c2ccccc12 [Procedure 6] | 62 mg/kg | > 2000 mg/kg | 8 to 15.7 mg/kg | inactive |  | 36.5 mg/kg |  | 27 mg/kg |  | 51.8 mg/kg | inactive | inactive |  |  |  | 
O=c1n(CCCN2CCN(c3cccc(Cl)c3)CC2)nc2ccccn12 [trazodone, 2-[3-[4-(3-chlorophenyl)-1-piperazinyl]propyl]-1,2,4-triazolo[4,3-a]pyridin-3(2H)-one, reference compound] | 43 mg/kg | 940 mg/kg | 2 to 4 mg/kg |  | 15.3 mg/kg | 22.2 mg/kg | 55.5 mg/kg | 36 mg/kg |  | 21.8 mg/kg |  |  | 131 mg/kg | tranquilizing action, hypotensive action, and analgesic action | antidepressant equivalent in effectiveness to imipramine but with fewer side effects | 44.4 mg/kg
